Laboratory results from US20080031818A1, “Use of Modulators of a Novel Form of Muscle Selective Calcineurin Interacting Protein (Mcip-1-38) as a Treatment for Cardiovascular Diseases” (GILEAD COLORADO, INC., priority 2004, published 2008).

Tests used:
[1] = tested on: neonatal rat ventricular myocytes (NRVM); assay: Cardiomyocyte cell volume (Coulter counter); assay type: cell-based; details: 48 hours exposure to PE, versus untreated controls, FIG. 9
Protocol: NRVM culture. For preparations of neonatal rat ventricular myocytes (NRVMs), hearts were removed from 10-20 newborn (1-2 days old) Sprague-Dawley rats. Isolated ventricles were pooled, minced and dispersed by three 20-minute incubations at 37° C. in Ads buffer (116 mM NaCl, 20 mM HEPES, 10 mM NaH2PO4, 5.5 mM glucose, 5 mM KCl, […], pH 7.4) containing collagenase Type II (65 units/ml, Worthington) and pancreatin (0.6 mg/ml, GibcoBRL). Dispersed cells were applied to a discontinuous gradient of 40.5% and 58.5% (v/v) Percoll (Amersham Biosciences), centrifuged, and myocytes collected from the interface layer. […]
Hypertrophy and toxicity assays. Primary hypertrophy endpoints for NRVM included quantitation of ANF secretion, total cellular protein and cell volume. ANF in media supernatants was quantitated by competitive ELISA using a monoclonal anti-ANF antibody (Biodesign) and a biotinylated ANF peptide (Phoenix Peptide). Total cellular protein was quantitated by standard Coomassie dye-binding assay; cells were lysed in protein assay reagent (BioRad) and absorbance at A595 was measured after 1 hour. […] After recovery by centrifugation, cell pellets were washed in PBS, resuspended in 10 ml IsoFlow electrolyte solution (Beckman-Coulter) and analyzed with a Z2 Coulter Particle Counter and Size Analyzer (Beckman-Coulter). […]

beta myosin heavy chain = assay: Beta myosin heavy chain protein by cytoblot; assay type: cell-based, rat; details: NRVM, 48 hours exposure to PE, FIG. 10A
Protocol: NRVM culture. For preparations of neonatal rat ventricular myocytes (NRVMs), hearts were removed from 10-20 newborn (1-2 days old) Sprague-Dawley rats. Isolated ventricles were pooled, minced and dispersed by three 20-minute incubations at 37° C. in Ads buffer (116 mM NaCl, 20 mM HEPES, 10 mM NaH2PO4, 5.5 mM glucose, 5 mM KCl, […], pH 7.4) containing collagenase Type II (65 units/ml, Worthington) and pancreatin (0.6 mg/ml, GibcoBRL). Dispersed cells were applied to a discontinuous gradient of 40.5% and 58.5% (v/v) Percoll (Amersham Biosciences), centrifuged, and myocytes collected from the interface layer. Myocyte preparations were pre-plated in Dulbecco's modified Eagle's medium (DMEM, Cellgro), supplemented with 10% (v/v) fetal bovine serum (FBS, HyClone), 4 mM L-glutamine and 1% penicillin/streptomycin for 1 hour at 37° C. to reduce fibroblast contamination, then plated at a density of 2.5′10^5 cells per well on 6-well tissue culture plates (or 10,000 cells/well on 96-well tissue culture plates) coated with a 0.2% (w/v) gelatin solution. After 24 hours in culture, myocyte preparations were transferred to serum-free maintenance medium (DMEM supplemented with 0.1% (v/v) Nutridoma (Roche), L-glutamine and penicillin/streptomycin). […]
Myosin heavy chain protein quantitation by cytoblot. […] Plates were read in a 96-well luminometer (Packard Fusion).

CNC[C@H](O)c1cccc(O)c1 [phenylephrine]
increase in cell volume [1]: approximately 50% | beta myosin protein expression (beta myosin heavy chain): increased beta myosin protein expression by several fold
